In patent publication US12703729B2, “GIP agonist compounds and methods” (Zealand Pharma A/S, priority 2014, dated 2026):
Starred links: 1 amine or outer side, 2 acyl side, 3 side chain; linkers in the order of their positions; H or OH if unused. Non-standard residues stand in square brackets, D forms with d. Residues, ends and D or L forms follow the SMILES beside them. Groups on a side chain read outwards from the residue. *: point of attachment. C20 diacid = O=C(O)CCCCCCCCCCCCCCCCCCC(=O)*; γGlu = O=C(O)[C@H](CCC(=O)[*:2])N[*:1]; Palmitoyl = CCCCCCCCCCCCCCCC(=O)*; AEEA = NCCOCCOCC(=O)O; Aib = CC(C)(N)C(=O)O

Key:
human GIP R = target: T1, human GIP R (Homo sapiens, UniProt P48546); experiment: cell-based
T1 sequence (P48546 22-466): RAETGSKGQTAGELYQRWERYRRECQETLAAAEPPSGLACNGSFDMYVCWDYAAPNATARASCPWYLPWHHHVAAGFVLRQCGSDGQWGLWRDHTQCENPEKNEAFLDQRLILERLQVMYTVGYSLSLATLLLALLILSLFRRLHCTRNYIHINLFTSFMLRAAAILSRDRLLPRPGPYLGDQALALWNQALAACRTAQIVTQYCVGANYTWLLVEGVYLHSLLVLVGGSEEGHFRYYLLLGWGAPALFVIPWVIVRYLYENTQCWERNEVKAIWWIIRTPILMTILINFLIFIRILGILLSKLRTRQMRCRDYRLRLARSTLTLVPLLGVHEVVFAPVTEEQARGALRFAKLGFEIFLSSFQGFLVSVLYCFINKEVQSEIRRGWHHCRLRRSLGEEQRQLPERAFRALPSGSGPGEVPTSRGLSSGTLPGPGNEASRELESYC

[1] = target: T2, human GIP receptor (GIP R) (Homo sapiens, UniProt P48546); experiment: Activity assay at human GIP receptor, cAMP induction (AlphaScreen), Example 3
T2 sequence (P48546 22-466): T1 sequence (P48546 22-466)

Row | SMILES | EC50 (human GIP R) [nM] | EC50 [1] [nM]
1 | CCCCCCCCCCCCCCCC(=O)N[C@@H](CCC(=O)NCCCC[C@H](NC(=O)[C@H](CCCCN)NC(=O)[C@H](CC(=O)O)NC(=O)[C@H](CC(C)C)NC(=O)[C@H](CCC(=O)O)NC(=O)[C@@H](NC(=O)[C@H](CO)NC(=O)[C@H](Cc1ccc(O)cc1)NC(=O)[C@H](CC(=O)O)NC(=O)[C@H](CO)NC(=O)[C@@H](NC(=O)[C@H](Cc1ccccc1)NC(=O)[C@@H](NC(=O)CNC(=O)[C@H](CCC(=O)O)NC(=O)C(C)(C)NC(=O)[C@@H](N)Cc1ccc(O)cc1)[C@@H](C)O)[C@@H](C)CC)[C@@H](C)CC)C(=O)N[C@@H](Cc1c[nH]cn1)C(=O)N[C@@H](CCC(N)=O)C(=O)N[C@@H](CCC(N)=O)C(=O)N[C@@H](CC(=O)O)C(=O)N[C@@H](Cc1ccccc1)C(=O)N[C@H](C(=O)N[C@@H](CC(N)=O)C(=O)N[C@@H](Cc1c[nH]c2ccccc12)C(=O)N[C@@H](CC(C)C)C(=O)N[C@@H](CC(C)C)C(=O)N[C@@H](C)C(=O)N[C@@H](CCC(N)=O)C(=O)NCC(=O)N1CCC[C@H]1C(=O)N[C@@H](CO)C(=O)N[C@@H](CO)C(=O)NCC(=O)N[C@@H](C)C(=O)N1CCC[C@H]1C(=O)N1CCC[C@H]1C(=O)N1CCC[C@H]1C(=O)N[C@@H](CO)C(N)=O)C(C)C)C(=O)O [Compound 1] (H-Y[Aib]EGTFISDYSIELDKK([γGlu-Palmitoyl])HQQDFVNWLLAQGPSSGAPPPS-NH2) | 0.008 | 
2 | CCCCCCCCCCCCCCCC(=O)N[C@@H](CCC(=O)NCCCC[C@H](NC(=O)[C@H](CC(=O)O)NC(=O)[C@H](CC(C)C)NC(=O)[C@H](CCC(=O)O)NC(=O)[C@@H](NC(=O)[C@H](CO)NC(=O)[C@H](Cc1ccc(O)cc1)NC(=O)[C@H](CC(=O)O)NC(=O)[C@H](CO)NC(=O)[C@@H](NC(=O)[C@H](Cc1ccccc1)NC(=O)[C@@H](NC(=O)CNC(=O)[C@H](CCC(=O)O)NC(=O)C(C)(C)NC(=O)[C@@H](N)Cc1ccc(O)cc1)[C@@H](C)O)[C@@H](C)CC)[C@@H](C)CC)C(=O)N[C@H](C(=O)N[C@@H](Cc1c[nH]cn1)C(=O)N[C@@H](CCC(N)=O)C(=O)N[C@@H](CCC(N)=O)C(=O)N[C@@H](CC(=O)O)C(=O)N[C@@H](Cc1ccccc1)C(=O)N[C@H](C(=O)N[C@@H](CC(N)=O)C(=O)N[C@@H](Cc1c[nH]c2ccccc12)C(=O)N[C@@H](CC(C)C)C(=O)N[C@@H](CC(C)C)C(=O)N[C@@H](C)C(=O)N[C@@H](CCC(N)=O)C(=O)NCC(=O)N1CCC[C@H]1C(=O)N[C@@H](CO)C(=O)N[C@@H](CO)C(=O)NCC(=O)N[C@@H](C)C(=O)N1CCC[C@H]1C(=O)N1CCC[C@H]1C(=O)N1CCC[C@H]1C(=O)N[C@@H](CO)C(N)=O)C(C)C)[C@@H](C)CC)C(=O)O [Compound 2] (H-Y[Aib]EGTFISDYSIELDK([γGlu-Palmitoyl])IHQQDFVNWLLAQGPSSGAPPPS-NH2) | 0.013 | 0.008
3 | CCCCCCCCCCCCCCCC(=O)N[C@@H](CCC(=O)NCCCC[C@H](NC(=O)[C@H](CCCCN)NC(=O)[C@H](CCC(=O)O)NC(=O)[C@H](CC(C)C)NC(=O)[C@H](CCC(=O)O)NC(=O)[C@@H](NC(=O)[C@H](CO)NC(=O)[C@H](Cc1ccc(O)cc1)NC(=O)[C@H](CC(=O)O)NC(=O)[C@H](CO)NC(=O)[C@@H](NC(=O)[C@H](Cc1ccccc1)NC(=O)[C@@H](NC(=O)CNC(=O)[C@H](CCC(=O)O)NC(=O)C(C)(C)NC(=O)[C@@H](N)Cc1ccc(O)cc1)[C@@H](C)O)[C@@H](C)CC)[C@@H](C)CC)C(=O)N[C@@H](Cc1c[nH]cn1)C(=O)N[C@@H](CCC(N)=O)C(=O)N[C@@H](CCC(N)=O)C(=O)N[C@@H](CC(=O)O)C(=O)N[C@@H](Cc1ccccc1)C(=O)N[C@H](C(=O)N[C@@H](CC(N)=O)C(=O)N[C@@H](Cc1c[nH]c2ccccc12)C(=O)N[C@@H](CC(C)C)C(=O)N[C@@H](CC(C)C)C(=O)N[C@@H](C)C(=O)N[C@@H](CCC(N)=O)C(=O)NCC(=O)N1CCC[C@H]1C(=O)N[C@@H](CO)C(=O)N[C@@H](CO)C(=O)NCC(=O)N[C@@H](C)C(=O)N1CCC[C@H]1C(=O)N1CCC[C@H]1C(=O)N1CCC[C@H]1C(=O)N[C@@H](CO)C(N)=O)C(C)C)C(=O)O [Compound 3] (H-Y[Aib]EGTFISDYSIELEKK([γGlu-Palmitoyl])HQQDFVNWLLAQGPSSGAPPPS-NH2) | 0.014 | 0.014
4 | CC[C@H](C)[C@H](NC(=O)[C@H](CCCCN)NC(=O)[C@H](CC(=O)O)NC(=O)[C@H](CC(C)C)NC(=O)[C@H](CCC(=O)O)NC(=O)[C@@H](NC(=O)[C@H](CO)NC(=O)[C@H](Cc1ccc(O)cc1)NC(=O)[C@H](CC(=O)O)NC(=O)[C@H](CO)NC(=O)[C@@H](NC(=O)[C@H](Cc1ccccc1)NC(=O)[C@@H](NC(=O)CNC(=O)[C@H](CCC(=O)O)NC(=O)C(C)(C)NC(=O)[C@@H](N)Cc1ccc(O)cc1)[C@@H](C)O)[C@@H](C)CC)[C@@H](C)CC)C(=O)N[C@@H](Cc1c[nH]cn1)C(=O)N[C@@H](CCC(N)=O)C(=O)N[C@@H](CCC(N)=O)C(=O)N[C@@H](CC(=O)O)C(=O)N[C@@H](Cc1ccccc1)C(=O)N[C@H](C(=O)N[C@@H](CC(N)=O)C(=O)N[C@@H](Cc1c[nH]c2ccccc12)C(=O)N[C@@H](CC(C)C)C(=O)N[C@@H](CC(C)C)C(=O)N[C@@H](C)C(=O)N[C@@H](CCC(N)=O)C(=O)NCC(=O)N1CCC[C@H]1C(=O)N[C@@H](CO)C(=O)N[C@@H](CO)C(=O)NCC(=O)N[C@@H](C)C(=O)N1CCC[C@H]1C(=O)N1CCC[C@H]1C(=O)N1CCC[C@H]1C(=O)N[C@@H](CO)C(=O)N[C@@H](CCCCNC(=O)COCCOCCNC(=O)COCCOCCNC(=O)CC[C@H](NC(=O)CCCCCCCCCCCCCCCCCCC(=O)O)C(=O)O)C(N)=O)C(C)C [Compound 4] (H-Y[Aib]EGTFISDYSIELDKIHQQDFVNWLLAQGPSSGAPPPSK([AEEA-AEEA-γGlu-C20 diacid])-NH2) | 0.013 | 0.014
5 | CCCCCCCCCCCCCCCC(=O)N[C@@H](CCC(=O)NCCCC[C@H](NC(=O)[C@H](CO)NC(=O)[C@@H]1CCCN1C(=O)[C@@H]1CCCN1C(=O)[C@@H]1CCCN1C(=O)[C@H](C)NC(=O)CNC(=O)[C@H](CO)NC(=O)[C@H](CO)NC(=O)[C@@H]1CCCN1C(=O)CNC(=O)[C@H](CCC(N)=O)NC(=O)[C@H](C)NC(=O)[C@H](CC(C)C)NC(=O)[C@H](CC(C)C)NC(=O)[C@H](Cc1c[nH]c2ccccc12)NC(=O)[C@H](CC(N)=O)NC(=O)[C@@H](NC(=O)[C@H](Cc1ccccc1)NC(=O)[C@H](CC(=O)O)NC(=O)[C@H](CCC(N)=O)NC(=O)[C@H](CCC(N)=O)NC(=O)[C@H](Cc1c[nH]cn1)NC(=O)[C@@H](NC(=O)[C@H](CCCCN)NC(=O)[C@H](CC(=O)O)NC(=O)[C@H](CC(C)C)NC(=O)[C@H](CCC(=O)O)NC(=O)[C@@H](NC(=O)[C@H](CO)NC(=O)[C@H](Cc1ccc(O)cc1)NC(=O)[C@H](CC(=O)O)NC(=O)[C@H](CO)NC(=O)[C@@H](NC(=O)[C@H](Cc1ccccc1)NC(=O)[C@@H](NC(=O)CNC(=O)[C@H](CCC(=O)O)NC(=O)C(C)(C)NC(=O)[C@@H](N)Cc1ccc(O)cc1)[C@@H](C)O)[C@@H](C)CC)[C@@H](C)CC)[C@@H](C)CC)C(C)C)C(N)=O)C(=O)O [Compound 5] (H-Y[Aib]EGTFISDYSIELDKIHQQDFVNWLLAQGPSSGAPPPSK([γGlu-Palmitoyl])-NH2) | 0.014 | 0.014
6 | CCCCCCCCCCCCCCCC(=O)N[C@@H](CCC(=O)NCCCC[C@H](NC(=O)[C@H](CCC(N)=O)NC(=O)[C@H](C)NC(=O)[C@H](CC(C)C)NC(=O)[C@H](CC(C)C)NC(=O)[C@H](Cc1c[nH]c2ccccc12)NC(=O)[C@H](CC(N)=O)NC(=O)[C@@H](NC(=O)[C@H](Cc1ccccc1)NC(=O)[C@H](CC(=O)O)NC(=O)[C@H](CCC(N)=O)NC(=O)[C@H](CCC(N)=O)NC(=O)[C@H](Cc1c[nH]cn1)NC(=O)[C@@H](NC(=O)[C@H](CCCCN)NC(=O)[C@H](CC(=O)O)NC(=O)[C@H](CC(C)C)NC(=O)[C@H](CCC(=O)O)NC(=O)[C@@H](NC(=O)[C@H](CO)NC(=O)[C@H](Cc1ccc(O)cc1)NC(=O)[C@H](CC(=O)O)NC(=O)[C@H](CO)NC(=O)[C@@H](NC(=O)[C@H](Cc1ccccc1)NC(=O)[C@@H](NC(=O)CNC(=O)[C@H](CCC(=O)O)NC(=O)C(C)(C)NC(=O)[C@@H](N)Cc1ccc(O)cc1)[C@@H](C)O)[C@@H](C)CC)[C@@H](C)CC)[C@@H](C)CC)C(C)C)C(N)=O)C(=O)O [Compound 6] (H-Y[Aib]EGTFISDYSIELDKIHQQDFVNWLLAQK([γGlu-Palmitoyl])-NH2) | 0.032 | 0.014
7 | CCCCCCCCCCCCCCCC(=O)N[C@@H](CCC(=O)NCCCC[C@H](NC(=O)CNC(=O)[C@H](CCCCN)NC(=O)[C@H](CCC(N)=O)NC(=O)[C@H](C)NC(=O)[C@H](CC(C)C)NC(=O)[C@H](CC(C)C)NC(=O)[C@H](Cc1c[nH]c2ccccc12)NC(=O)[C@H](CC(N)=O)NC(=O)[C@@H](NC(=O)[C@H](Cc1ccccc1)NC(=O)[C@H](CC(=O)O)NC(=O)[C@H](CCC(N)=O)NC(=O)[C@H](CCC(N)=O)NC(=O)[C@H](Cc1c[nH]cn1)NC(=O)[C@@H](NC(=O)[C@H](CCCCN)NC(=O)[C@H](CC(=O)O)NC(=O)[C@H](CC(C)C)NC(=O)[C@H](CCC(=O)O)NC(=O)[C@@H](NC(=O)[C@H](CO)NC(=O)[C@H](Cc1ccc(O)cc1)NC(=O)[C@H](CC(=O)O)NC(=O)[C@H](CO)NC(=O)[C@@H](NC(=O)[C@H](Cc1ccccc1)NC(=O)[C@@H](NC(=O)CNC(=O)[C@H](CCC(=O)O)NC(=O)C(C)(C)NC(=O)[C@@H](N)Cc1ccc(O)cc1)[C@@H](C)O)[C@@H](C)CC)[C@@H](C)CC)[C@@H](C)CC)C(C)C)C(N)=O)C(=O)O [Compound 7] (H-Y[Aib]EGTFISDYSIELDKIHQQDFVNWLLAQKGK([γGlu-Palmitoyl])-NH2) |  | 0.032
